Tests used:
[1] = target: T1, PA1217 (Pseudomonas aeruginosa, UniProt Q9I4C1); assay: DTNB end-point assay of CoA release; 1H-NMR; assay type: biochemical; settings: 1 mM acetyl-CoA, 2 mM 3-methyl-2-oxobutanoic acid, MgCl2, pH 7.5, 37 °C
T1 construct: full-length, GST-tagged (pGEX-6P-1), expressed in E. coli BL21(DE3), GSTrap purified; tag removal not mentioned
T1 sequence (Q9I4C1 1-455): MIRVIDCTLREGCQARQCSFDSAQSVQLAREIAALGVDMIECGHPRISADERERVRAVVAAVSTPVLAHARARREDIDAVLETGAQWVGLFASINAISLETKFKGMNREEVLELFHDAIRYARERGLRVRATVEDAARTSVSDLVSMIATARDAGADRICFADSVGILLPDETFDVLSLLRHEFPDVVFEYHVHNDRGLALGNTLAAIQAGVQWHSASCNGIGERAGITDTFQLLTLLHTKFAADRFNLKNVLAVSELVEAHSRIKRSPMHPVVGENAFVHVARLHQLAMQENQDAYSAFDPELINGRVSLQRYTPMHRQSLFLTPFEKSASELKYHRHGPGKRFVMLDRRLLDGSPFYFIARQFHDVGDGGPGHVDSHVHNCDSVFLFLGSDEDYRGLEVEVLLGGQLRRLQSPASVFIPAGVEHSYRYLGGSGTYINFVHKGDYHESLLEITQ

[2] = target: T2, Qst (Pseudomonas phage LUZ19, UniProt A9J759); assay: DTNB end-point assay of CoA release; 1H-NMR; assay type: biochemical; settings: 1 mM acetyl-CoA, 2 mM 3-methyl-2-oxobutanoic acid, MgCl2, pH 7.5, 37 °C
T2 construct: gene gp4; His-tagged (pEXP5-CT/TOPO), expressed in E. coli BL21(DE3), HisTrap purified; predicted 13 kDa
T2 sequence (A9J759 1-122): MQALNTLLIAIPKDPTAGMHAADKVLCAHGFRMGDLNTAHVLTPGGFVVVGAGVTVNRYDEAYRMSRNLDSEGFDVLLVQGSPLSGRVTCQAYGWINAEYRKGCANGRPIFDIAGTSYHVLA

With CC(=O)SCCNC(=O)CCNC(=O)[C@H](O)C(C)(C)COP(=O)(O)OP(=O)(O)OC[C@H]1O[C@@H](n2cnc3c(N)ncnc32)[C@H](O)[C@@H]1OP(=O)(O)O [acetyl-CoA] the “DTNB end-point assay of CoA release; 1H-NMR” value [1] was “products were only formed by LeuA, while PA1217 merely consumed acetyl-CoA” and the “DTNB end-point assay of CoA release; 1H-NMR” value [2] was “Qst was also able to consume acetyl-CoA”.
